Measured values as given in patent US20060069132A1, “Azolecarboxamide herbicides” (priority 2004, published 2006).
Like-named read-outs stand apart in the source and are kept apart here.

Assays:
[1] = system: woolly cupgrass; assay: Test C pre-/postemergence herbicide test; type: in vivo, Eriochloa villosa; conditions: for Cupgrass, Woolly plant response rating: Preemergence, scale 0 to 100, 0 no effect, 100 complete control
In short: (§1)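 Greenhouse-grown plants were evaluated visually 12 to 14 days after treatment, with 100 meaning complete control and 0 no effect. Application was preemergence, or postemergence at 2 to 18 cm.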

[2] = system: johnsongrass; assay: Test C pre-/postemergence herbicide test; type: in vivo, Sorghum halepense; conditions: for Johnsongrass plant response rating: Preemergence, scale 0 to 100, 0 no effect, 100 complete control
In short: as §1

[3] = system: smallflower umbrella sedge; assay: Test C flooded paddy test; type: in vivo, Cyperus difformis; conditions: Cyperus difformis
[4] = system: morningglory; assay: Test A pre-/postemergence herbicide test; type: in vivo, Ipomoea spp.; conditions: for pest or weed control at 500 g/ha / pest or weed control at 2000 g/ha: Ipomoea, 240 h
In short: (§2)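 Plants are held in greenhouse about ten days after treatment, then compared with untreated controls and scored 0 (no effect) to 100 (complete control). Preemergence dosing is a directed soil spray on sown sandy loam; postemergence dosing is spray to runoff at 2–10 cm height.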

[5] = system: velvetleaf; assay: Test C pre-/postemergence herbicide test; type: in vivo, Abutilon theophrasti; conditions: for Velvetleaf plant response rating: Preemergence, scale 0 to 100, 0 no effect, 100 complete control
In short: as §1

[6] = system: eastern black nightshade; assay: Test C pre-/postemergence herbicide test; type: in vivo, Solanum ptycanthum; conditions: for Nightshade plant response rating: Preemergence, scale 0 to 100, 0 no effect, 100 complete control
In short: as §1

[7] = system: Surinam grass; assay: Test C pre-/postemergence herbicide test; type: in vivo, Urochloa decumbens; conditions: for Surinam Grass plant response rating: Preemergence, scale 0 to 100, 0 no effect, 100 complete control
In short: as §1

[8] = system: common (oilseed) sunflower; assay: Test C pre-/postemergence herbicide test; type: in vivo, Helianthus annuus; conditions: for Sunflower plant response rating: Preemergence, scale 0 to 100, 0 no effect, 100 complete control
In short: as §1

[9] = system: corn; assay: Test C pre-/postemergence herbicide test; type: in vivo, Zea mays; conditions: for Corn plant response rating: Preemergence, scale 0 to 100, 0 no effect, 100 complete control
In short: as §1

[10] = system: barnyardgrass; assay: Test A pre-/postemergence herbicide test; type: in vivo, Echinochloa crus-galli; conditions: for pest or weed control at 500 g/ha / pest or weed control at 2000 g/ha: Echinochloa crus-galli, 240 h
In short: as §2

[11] = 62 g ai/ha, preemergence, scale 0 to 100
[12] = 125 g ai/ha, scale 0 (no effect) to 100 (complete control), visual, 12 to 14 days, preemergence
[13] = 250 g ai/ha, scale 0-100, preemergence
[14] = Postemergence, 500 g ai/ha, 0 to 100 scale, 0 no effect, 100 complete control
[15] = Postemergence, 2000 g ai/ha, 0 to 100 scale, 0 no effect, 100 complete control
[16] = Preemergence, 2000 g ai/ha, visual rating, 0 to 100 scale (0 no effect, 100 complete control)
[17] = preemergence, 500 g ai/ha, visual injury, 0 to 100 scale (0 no effect, 100 complete control)
[18] = 500 g ai/ha, scale 0 to 100 (0 no effect, 100 complete control), visual, 12 to 14 days, preemergence

CCNC(=O)c1ccc(F)c(NC(=O)c2cc(C(C)(C)C)nn2CC)c1 [Compound 2, 3-(1,1-dimethylethyl)-1-ethyl-N-[5-[(ethylamino)carbonyl]-2-fluorophenyl]-1H-pyrazole-5-carboxamide]
Plant response rating (0 = no effect, 100 = complete control), Cupgrass, Woolly ([1]; 62 g ai/ha, preemergence): 40
pest or weed control at 125 g/ha ([1]; Eriochloa villosa, pre-emergence, 312 h, 125 g ai/ha, scale 0-100, read-out: Plant response rating, Cupgrass, Woolly): 60%
pest or weed control at 250 g/ha ([1]; Eriochloa villosa, pre-emergence, 312 h, 250 g ai/ha, scale 0 to 100 (0 no effect, 100 complete control), visual, 12 to 14 days, read-out: Plant response rating, Cupgrass, Woolly): 60%
Cupgrass, Woolly plant response rating ([1]; 500 g ai/ha): 80
Plant response rating (0 = no effect, 100 = complete control), Johnsongrass ([2]; 62 g ai/ha, preemergence): 70
Johnsongrass plant response rating ([2]; 500 g ai/ha): 100
pest or weed control at 125 g/ha ([2]; Sorghum halepense, pre-emergence, 125 g ai/ha, scale 0-100, read-out: Plant response rating, Johnsongrass): 90%
pest or weed control at 250 g/ha ([2]; Sorghum halepense, pre-emergence, 250 g ai/ha, scale 0 to 100 (0 no effect, 100 complete control), visual, 12 to 14 days, read-out: Plant response rating, Johnsongrass): 100%
pest or weed control at 62 g/ha ([3]; 62 g ai/ha, scale 0 to 100 (0 no effect, 100 complete control), read-out: Sedge, Umbrella plant response rating): 75%
pest or weed control at 125 g/ha ([3]; 125 g ai/ha, scale of 0 to 100, 0 is no effect, 100 is complete control, read-out: Sedge, Umbrella plant response rating): 75%
pest or weed control at 250 g/ha ([3]; 250 g ai/ha, visual rating after 12 to 14 days, scale 0 to 100 (0 no effect, 100 complete control), read-out: Plant response rating, Sedge, Umbrella): 85%
pest or weed control at 500 g/ha ([3]; 500 g ai/ha, visual rating after 12 to 14 days, scale 0 to 100 (0 no effect, 100 complete control), read-out: Plant response rating, Sedge, Umbrella): 95%
pest or weed control at 500 g/ha ([4]; post-emergence, Postemergence, 500 g ai/ha, 0 to 100 scale, 0 no effect, 100 complete control, read-out: Plant response rating, Morningglory): 45%
pest or weed control at 2000 g/ha ([4]; post-emergence, Postemergence, 2000 g ai/ha, 0 to 100 scale, 0 no effect, 100 complete control, read-out: Plant response rating, Morningglory): 80%
pest or weed control at 500 g/ha ([4]; pre-emergence, Preemergence, 500 g ai/ha, visual rating, 0 to 100 scale (0 no effect, 100 complete control), read-out: Morningglory plant response rating): 80%
pest or weed control at 2000 g/ha ([4]; pre-emergence, Preemergence, 2000 g ai/ha, 0 to 100 scale, 0 no effect, 100 complete control, read-out: Morningglory plant response rating): 100%
Plant response rating (0 = no effect, 100 = complete control), Velvetleaf ([5]; 62 g ai/ha, preemergence): 60
pest or weed control at 250 g/ha ([5]; Abutilon theophrasti, pre-emergence, 250 g ai/ha, scale 0 to 100 (0 no effect, 100 complete control), visual, 12 to 14 days, read-out: Plant response rating, Velvetleaf): 100%
Velvetleaf plant response rating ([5]; 500 g ai/ha): 100
Plant response rating (0 = no effect, 100 = complete control), Nightshade ([6]; 62 g ai/ha, preemergence): 100
Nightshade plant response rating ([6]; 500 g ai/ha): 100
pest or weed control at 250 g/ha ([6]; pre-emergence, 250 g ai/ha, scale 0 to 100 (0 no effect, 100 complete control), visual, 12 to 14 days, read-out: Plant response rating, Nightshade): 100%
Plant response rating (0 = no effect, 100 = complete control), Surinam Grass ([7]; 62 g ai/ha, preemergence): 90
Surinam Grass plant response rating ([7]; 500 g ai/ha): 100
pest or weed control at 250 g/ha ([7]; Urochloa decumbens, pre-emergence, 312 h, 250 g ai/ha, scale 0 to 100 (0 no effect, 100 complete control), visual, 12 to 14 days, read-out: Plant response rating, Surinam Grass): 100%
Plant response rating (0 = no effect, 100 = complete control), Sunflower ([8]; 62 g ai/ha, preemergence): 0
pest or weed control at 250 g/ha ([8]; Helianthus annuus, pre-emergence, 250 g ai/ha, scale 0 to 100 (0 no effect, 100 complete control), visual, 12 to 14 days, read-out: Plant response rating, Sunflower): 0%
Sunflower plant response rating ([8]; 500 g ai/ha): 0
Plant response rating (0 = no effect, 100 = complete control), Corn ([9]; 62 g ai/ha, preemergence): 0
Corn plant response rating ([9]; 500 g ai/ha): 60
Corn plant response rating (crop injury, 0 = no effect, 100 = complete kill) at 125 g/ha ([9]; Zea mays, pre-emergence, 312 h, 125 g ai/ha, scale 0-100): 30%
Corn plant response rating (crop injury, 0 = no effect, 100 = complete kill) at 250 g/ha ([9]; Zea mays, pre-emergence, 312 h, 250 g ai/ha, scale 0 to 100 (0 no effect, 100 complete control), visual, 12 to 14 days): 35%
pest or weed control at 500 g/ha ([10]; post-emergence, Postemergence, 500 g ai/ha, 0 to 100 scale, 0 no effect, 100 complete control, read-out: Plant response rating, Barnyardgrass): 100%
pest or weed control at 2000 g/ha ([10]; post-emergence, Postemergence, 2000 g ai/ha, 0 to 100 scale, 0 no effect, 100 complete control, read-out: Plant response rating, Barnyardgrass): 100%
pest or weed control at 500 g/ha ([10]; pre-emergence, Preemergence, 500 g ai/ha, visual rating, 0 to 100 scale (0 no effect, 100 complete control), read-out: Barnyardgrass plant response rating): 100%
pest or weed control at 2000 g/ha ([10]; pre-emergence, Preemergence, 2000 g ai/ha, 0 to 100 scale, 0 no effect, 100 complete control, read-out: Barnyardgrass plant response rating): 100%

CCNC(=O)c1cccc(NC(=O)c2sc(C(C)(C)C)nc2C)c1 [Compound 198]
Plant response rating, Cupgrass, Woolly [1, 11]: 0
Plant response rating, Cupgrass, Woolly [1, 12]: 5
Plant response rating, Cupgrass, Woolly [1, 13]: 10
Cupgrass, Woolly plant response rating ([1]; 500 g ai/ha): 70
Plant response rating, Johnsongrass [2, 11]: 0
Plant response rating, Johnsongrass [2, 12]: 30
Plant response rating, Johnsongrass [2, 13]: 60
Johnsongrass plant response rating ([2]; 500 g ai/ha): 95
Morningglory plant response rating [4, 14]: 60
Plant response rating, Morningglory [4, 15]: 75
Morningglory plant response rating [4, 16]: 85
Morningglory plant response rating [4, 17]: 45
Plant response rating, Velvetleaf [5, 11]: 5
Plant response rating, Velvetleaf [5, 12]: 80
Plant response rating, Velvetleaf [5, 13]: 80
Velvetleaf plant response rating ([5]; 500 g ai/ha): 100
Plant response rating, Nightshade [6, 11]: 90
Plant response rating, Nightshade [6, 12]: 95
Plant response rating, Nightshade [6, 13]: 100
Nightshade plant response rating ([6]; 500 g ai/ha): 100
Plant response rating, Surinam Grass [7, 11]: 0
Plant response rating, Surinam Grass [7, 12]: 10
Plant response rating, Surinam Grass [7, 13]: 30
Surinam Grass plant response rating ([7]; 500 g ai/ha): 100
Plant response rating, Sunflower [8, 11]: 0
Plant response rating, Sunflower [8, 12]: 0
Plant response rating, Sunflower [8, 13]: 10
Sunflower plant response rating ([8]; 500 g ai/ha): 20
Plant response rating, Corn [9, 11]: 0
Plant response rating, Corn [9, 12]: 0
Plant response rating, Corn [9, 13]: 0
Corn plant response rating ([9]; 500 g ai/ha): 0
Barnyardgrass plant response rating [10, 14]: 45
Plant response rating, Barnyardgrass [10, 15]: 80
Barnyardgrass plant response rating [10, 16]: 90
Barnyardgrass plant response rating [10, 17]: 55

CCNC(=O)c1cccc(NC(=O)c2sc(C(C)(C)C)nc2CC)n1 [Compound 213]
Plant response rating, Cupgrass, Woolly [1, 11]: 0
Plant response rating, Cupgrass, Woolly [1, 12]: 0
Plant response rating, Cupgrass, Woolly [1, 13]: 0
Plant response rating, Cupgrass, Woolly [1, 18]: 30
Plant response rating, Johnsongrass [2, 11]: 0
Plant response rating, Johnsongrass [2, 12]: 55
Plant response rating, Johnsongrass [2, 13]: 60
Plant response rating, Johnsongrass [2, 18]: 80
Morningglory plant response rating [4, 14]: 20
Plant response rating, Morningglory [4, 15]: 10
Morningglory plant response rating [4, 16]: 60
Morningglory plant response rating [4, 17]: 25
Plant response rating, Velvetleaf [5, 11]: 0
Plant response rating, Velvetleaf [5, 12]: 0
Plant response rating, Velvetleaf [5, 13]: 0
Plant response rating, Velvetleaf [5, 18]: 0
Plant response rating, Nightshade [6, 11]: 100
Plant response rating, Nightshade [6, 12]: 100
Plant response rating, Nightshade [6, 13]: 100
Plant response rating, Nightshade [6, 18]: 100
Plant response rating, Surinam Grass [7, 11]: 0
Plant response rating, Surinam Grass [7, 12]: 0
Plant response rating, Surinam Grass [7, 13]: 20
Plant response rating, Surinam Grass [7, 18]: 60
Plant response rating, Sunflower [8, 11]: 0
Plant response rating, Sunflower [8, 12]: 0
Plant response rating, Sunflower [8, 13]: 0
Plant response rating, Sunflower [8, 18]: 0
Plant response rating, Corn [9, 11]: 0
Plant response rating, Corn [9, 12]: 0
Plant response rating, Corn [9, 13]: 30
Plant response rating, Corn [9, 18]: 40
Barnyardgrass plant response rating [10, 14]: 25
Plant response rating, Barnyardgrass [10, 15]: 45
Barnyardgrass plant response rating [10, 16]: 70
Barnyardgrass plant response rating [10, 17]: 40
